{"source": "paper PMC2228116", "about": "(British Journal of Cancer, 1997)", "key": {"[1]": {"test": "Control experiments without liver: chemical transformation in perfusate (19F-NMR)", "format": "physicochemical"}, "[2]": {"tested_on": "isolated perfused rat liver", "test": "in vitro", "protocol": "(§1) British Joumal of Cancer (1997) 76(9), 1170-1180 ? […] Livers were perfused with 5-FU alone at a dose of 15 mg kg-' body weight or with 5-FU + GW776 at doses of 15 mg 5-FU kg-' body weight and 0.5 mg GW776 kg-' body weight injected 1 h before 5-FU. […] Keywords: 5-fluorouracil; 5-ethynyluracil (GW776); 19F nuclear magnetic resonance; modulation of 5-fluorouracil metabolism; fluoroacetate; 2-fluoro-3-hydroxypropionic acid; isolated perfused rat liver 5-Fluorouracil (5-FU) is one of the most commonly used anti- cancer agents for treatment of solid tumours. Common clinical adverse reactions include myelosuppression, diarrhoea, vomiting and mucositis. […] 5-Ethynyluracil (GW776) is a potent inactivator of the catabolic pathway of 5-FU acting on dihydropyrimidine dehydrogenase (DPD), the enzyme that converts 5-FU into its first catabolite, 5,6-dihydro-5-fluorouracil (FUH2), thereby preserving 5-FU from its rapid and extensive catabolism (Porter et al, 1992; Baccanari et al, 1993; Spector et al, 1993). […] MATERIALS AND METHODS IPRL experiments Livers from male Wistar rats (Iffa Credo, Lyon, France) were isolated and perfused with recirculation of the perfusion medium according to the design originally described by Brauer et al (1951) and modified by Sabouraud et al (1993). The recirculating perfusate (approximately 180 ml), oxygenated with oxygen- carbon dioxide (95%:5%), was a Krebs-Ringer bicarbonate buffer supplemented with glucose (1.3 mM) and bovine serum albumin (0.5%). The perfusate (pH 7.4) was recirculated at a mean flow rate of 10 ml min-1 g-' of liver. The experiments were carried out with solutions of 5-FU prepared immediately before use at a dose of 15 mg kg-' body weight."}, "in vitro": {"test": "in vitro", "conditions": "male, Wistar, rat, pH 7.4", "protocol": "as §1"}, "[3]": {"set-up": "method as in Khor et al, 1996", "conditions": "humans, without GW776; ref Khor et al, 1996; cited from earlier work"}, "[4]": {"tested_on": "isolated perfused rat liver", "test": "Liver viability in IPRL experiments (LDH activity in perfusate, bile flow)", "conditions": "Table 1, text", "protocol": "as §1, with “The recirculating perfusate (approximately 180 ml), oxygenated with oxygen- carbon dioxide (95%:5%), was a Krebs-Ringer bicarbonate buffer supplemented with glucose (1.3 mM) and bovine serum albumin (0.5%). The perfusate (pH 7.4) was recirculated at a mean flow rate of 10 ml min-1 g-' of liver. The experiments were carried out with solutions of 5-FU prepared immediately before use at a dose of 15 mg kg-' body weight.” left out"}, "[5]": {"set-up": "method as in Zhang et al, 1992, 1993", "conditions": "rats; ref Zhang et al, 1992, 1993; cited from earlier work"}, "[6]": {"tested_on": "isolated perfused rabbit heart", "test": "Cardiotoxicity on the isolated perfused rabbit heart model", "conditions": "unpublished data"}, "mouse tumour models": {"tested_on": "mouse tumour models", "set-up": "method as in Baccanari et al, 1993", "conditions": "ref Baccanari et al, 1993; cited from earlier work"}, "rat tumour models": {"tested_on": "rat tumour models", "set-up": "method as in Cao et al, 1994", "conditions": "ref Cao et al, 1994; cited from earlier work"}, "MOPC-315 s.c. tumours": {"tested_on": "MOPC-315 s.c. tumours", "set-up": "method as in Davis et al (1995)", "conditions": "compared with mice treated with 5-FU alone; ref Davis et al (1995); cited from earlier work"}, "dogs": {"tested_on": "dogs", "set-up": "method as in Davis et al (1994)", "conditions": "26-h continuous infusion of 5-FU at 1.6, 4 or 16 mg kg-1 24 h-1; ref Davis et al (1994); cited from earlier work"}, "DPD": {"tested_on": "DPD", "set-up": "method as in Baccanari et al (1993)", "conditions": "1 h or 6 h after single dose GW776 2 mg kg-1 p.o.; compared with > 96% of this study; ref Baccanari et al (1993); cited from earlier work"}, "[7]": {"conditions": "Table 4, liver acid-insoluble extract"}, "[8]": {"conditions": "FBAL 16.6 mg kg-1 circulated 3 h without liver, after concentration"}, "[9]": {"conditions": "GW776 0.5 mg kg-1 1 h before 5-FU 15 mg kg-1"}}, "note": "Values joined by “and” are separate entries in the source; they are usually repeats but may differ in a detail not shown here. Equal entries are not always repeated.", "data": [{"smiles": "O=c1[nH]cc(F)c(=O)[nH]1", "note": "[5-FU, 5-fluorouracil]", "values": [{"measurement": "Chemical transformation in perfusate", "setting": "[1]; perfusate bubbled with carbogen for 3 h at 37 C", "value": "not chemically transformed"}, {"measurement": "Unmetabolized 5-FU, global recovery", "setting": "[2]", "value": "All 5-FU was metabolized"}, {"measurement": "5', 2' and 3' FUMP in acid-insoluble extract", "setting": "[2]; [7]", "value": "0 Per cent of Injected dose"}, {"measurement": "5-FU in acid-insoluble extract", "setting": "[2]; [7]", "value": "0 Per cent of Injected dose"}, {"measurement": "5-FU in acid-soluble extract", "setting": "[2]; Table 4, liver acid-soluble extract", "value": "0 Per cent of Injected dose"}, {"measurement": "Total in acid-soluble extract", "setting": "[2]; Table 4, liver acid-soluble extract, P<0.01", "value": "13 + 4 Per cent of Injected dose and 13 Per cent of Injected dose"}, {"measurement": "5-FU in perfusate", "setting": "[2]; male, Wistar, rat, pH 7.4", "value": "0 Per cent of Injected dose"}, {"measurement": "Unmetabolized 5-FU", "setting": "[2]; male, Wistar, rat, pH 7.4", "value": "0% of injected dose"}, {"measurement": "recovery", "setting": "in vitro", "value": 0, "unit": "%"}, {"measurement": "Half-life of 5-FU", "setting": "[3]", "value": "approximately 14 min"}, {"measurement": "LDH activity compared with control experiments", "setting": "[4]", "value": "no significant difference"}]}, {"smiles": "NCC(F)C(=O)O", "note": "(stereo not drawn) [FBAL, alpha-fluoro-beta-alanine]", "values": [{"measurement": "Adduct of FBAL with a-glucose as share of all the fluorinated compounds detected", "setting": "[1]; [8]", "value": 2.4, "unit": "%"}, {"measurement": "Adduct of FBAL with beta-glucose as share of all the fluorinated compounds detected", "setting": "[1]; [8]", "value": 28.3, "unit": "%"}, {"measurement": "CFBAL as share of all the fluorinated compounds detected", "setting": "[1]; [8]", "value": 49.6, "unit": "%"}, {"measurement": "F- as share of all the fluorinated compounds detected", "setting": "[1]; [8]", "value": 1.4, "unit": "%"}, {"measurement": "FBAL as share of all the fluorinated compounds detected", "setting": "[1]; [8]", "value": 18.3, "unit": "%"}, {"measurement": "FBAL signal share", "setting": "[1]; solution of FBAL in perfusion medium over 3 h", "value": 98.9, "unit": "%"}, {"measurement": "Retention in various tissues (mainly liver, heart and brain)", "setting": "[5]", "value": "up to 8 days"}]}, {"smiles": "O=C(O)C(F)CO", "note": "(stereo not drawn) [FHPA, 2-fluoro-3-hydroxypropionic acid]", "values": [{"measurement": "Cardiotoxicity", "setting": "[6]; 0.01 mg kg-1 (lowest dose)", "value": "did not generate cardiotoxic symptoms"}, {"measurement": "Cardiotoxicity", "setting": "[6]; 1.5 mg kg-1 (highest dose)", "value": "highly cardiotoxic"}]}, {"smiles": "C#Cc1c[nH]c(=O)[nH]c1=O", "note": "[GW776, 5-ethynyluracil]", "values": [{"measurement": "Therapeutic index of 5-FU", "setting": "mouse tumour models", "value": "increases the therapeutic index of 5-FU"}, {"measurement": "Therapeutic index of 5-FU", "setting": "rat tumour models", "value": "increases the therapeutic index of 5-FU"}, {"measurement": "Incorporation of 5-FU into RNA in tumours", "setting": "MOPC-315 s.c. tumours", "value": "enhanced the incorporation"}, {"measurement": "Inhibition of rat liver ability to catalyse 5-FU degradation", "setting": "[2]; GW776 0.5 mg kg-1 1 h before 5-FU", "value": "> 96", "unit": "%"}, {"measurement": "Decrease in FBAL formation", "setting": "[2]; [9]", "value": "approximately 110 factor"}, {"measurement": "Decrease in fluoride ion formation", "setting": "[2]; [9]", "value": "approximately 10 factor"}, {"measurement": "Decrease of the amount of 5-FU catabolites in the presence of GW776", "setting": "[2]; [9]", "value": 27, "unit": "factor"}, {"measurement": "Increase of 5-FU anabolites", "setting": "[2]; [9]", "value": "approximately 7 factor"}, {"measurement": "Protection from 5-FU-induced neurotoxicity", "setting": "dogs", "value": "protected dogs from the neurotoxicity"}, {"measurement": "Inhibition of DPD activity in liver extracts", "setting": "DPD", "value": "the same extent of inhibition"}]}]}
